# Results as given in article PMC3527451, “A Pilot Randomized, Placebo Controlled, Double Blind Phase I Trial of the Novel SIRT1 Activator SRT2104 in Elderly Volunteers” (PLoS ONE, 2012).
# Tests used:
# [1] = tested on: elderly male and female volunteers; test: MRI of subcutaneous and visceral adipose tissue; assay type: in vivo, human; conditions: active treatment relative to placebo
# Description: Magnetic Resonance Imaging (MRI) was also carried out on a clinical Siemens 3T Tim Trio (Siemens Healthcare, Erlangen, Germany). The torso was imaged using the 6-channel spine array and two 4-channel body array coils. The data were acquired using a 3D spoiled gradient echo sequence with partial Fourier acquisitions (VIBE). The imaging volume consisted of contiguous 3D slabs (voxel size of 1.4×1.4×5 mm3) acquired in a single 15 s end-expiration breath-hold (repetition time = 7 ms; echo times TEs = 2.45, 3.67 ms; flip angle = 10°; 450 mm field-of-view; GRAPPA factor 2). […] Fat-only images in the abdomen were manually segmented into intra-abdominal adipose tissue (IAT) and abdominal subcutaneous adipose tissue (SAT). The abdominal area was defined by using anatomical landmarks (top of the femoral heads to the bottom of the right lung). All images were anonymized and blinded to time point, but not to subject in order to facilitate matching anatomical landmarks, and sent to a third party (Vardis Group Inc, London), who derived the adipose tissue volumes using Slice-O-Matic (Tomovision, Montreal, Canada) software. Analysis of compartmental fat distribution was performed for subcutaneous adipose tissue (SAT), visceral adipose tissue (VAT), and the ratio of SAT:VAT, using an ANOVA model with treatment group as a factor.
# CYP3A4 = tested on: CYP3A4; parameters: method as in ref 17, 18 (a number printed in a supplementary file, which may have a reference list of its own: not looked up in the article's list); conditions: cultured hepatocytes, at the concentrations tested; cited from earlier work
compound,measurement,setting,value
Cc1nc(-c2cccnc2)sc1C(=O)Nc1ccccc1-c1cn2c(CN3CCOCC3)csc2n1 [SRT2104],subcutaneous (SAT) and visceral (VAT) adipose tissue volumes and VAT:SAT ratio,[1],No consistent changes from baseline
same,induction of CYP3A4,CYP3A4,not a significant inducer
